Assay results as given in patent US10544143B2, “4-azaindole compounds” (BRISTOL-MYERS SQUIBB COMPANY, priority 2017, dated 2020).
Read-outs that look alike come from different tables or passages of the source.

What was measured:
human TLR7 = human TLR7 (Homo sapiens (Human), UniProt Q9NYK1); test: TLR7 inhibition reporter assay (HEK-Blue SEAP); format: cell-based
human TLR8 = human TLR8 (Homo sapiens (Human), UniProt Q9NR97); test: TLR8 inhibition reporter assay (HEK-Blue SEAP);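 also: SEAP driven by IFN-β minimal promoter carrying NF-κB and AP-1 sites, compounds dosed 0.05 nM to 50 µM for 22 h, inhibition scaled between agonist-plus-DMSO and reference-inhibitor wells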
human TLR9 = human TLR9 (Homo sapiens (Human), UniProt Q9NR96); test: TLR9 inhibition reporter assay (HEK-Blue SEAP);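 also: SEAP driven by an IFN-β minimal promoter with NF-κB and AP-1 sites, read after 22 h, compounds dosed 0.05 nM–50 µM, inhibition scaled between agonist plus DMSO and reference-inhibitor wells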
[1] = HEK-Blue cells overexpressing human TLR7, gardiquimod 7.5 μM stimulation, SEAP reporter
[2] = read-out: TLR8 IC50, HEK-Blue cells overexpressing human TLR8, R848 15.9 μM stimulation, SEAP reporter
[3] = read-out: TLR9 IC50, HEK-Blue cells overexpressing human TLR9, ODN2006 5 nM stimulation, SEAP reporter
[4] = HEK-Blue human TLR7 cells, gardiquimod 7.5 μM
[5] = read-out: TLR8 IC50, HEK-Blue human TLR8 cells, R848 15.9 μM
[6] = read-out: TLR9 IC50, HEK-Blue human TLR9 cells, ODN2006 5 nM
[7] = HEK-Blue cells overexpressing human TLR7, SEAP reporter, gardiquimod 7.5 μM
[8] = read-out: TLR8 IC50, HEK-Blue cells overexpressing human TLR8, SEAP reporter, R848 15.9 μM
[9] = read-out: TLR9 IC50, HEK-Blue cells overexpressing human TLR9, SEAP reporter, ODN2006 5 nM

human TLR8, sequence (Q9NR97 27-1041): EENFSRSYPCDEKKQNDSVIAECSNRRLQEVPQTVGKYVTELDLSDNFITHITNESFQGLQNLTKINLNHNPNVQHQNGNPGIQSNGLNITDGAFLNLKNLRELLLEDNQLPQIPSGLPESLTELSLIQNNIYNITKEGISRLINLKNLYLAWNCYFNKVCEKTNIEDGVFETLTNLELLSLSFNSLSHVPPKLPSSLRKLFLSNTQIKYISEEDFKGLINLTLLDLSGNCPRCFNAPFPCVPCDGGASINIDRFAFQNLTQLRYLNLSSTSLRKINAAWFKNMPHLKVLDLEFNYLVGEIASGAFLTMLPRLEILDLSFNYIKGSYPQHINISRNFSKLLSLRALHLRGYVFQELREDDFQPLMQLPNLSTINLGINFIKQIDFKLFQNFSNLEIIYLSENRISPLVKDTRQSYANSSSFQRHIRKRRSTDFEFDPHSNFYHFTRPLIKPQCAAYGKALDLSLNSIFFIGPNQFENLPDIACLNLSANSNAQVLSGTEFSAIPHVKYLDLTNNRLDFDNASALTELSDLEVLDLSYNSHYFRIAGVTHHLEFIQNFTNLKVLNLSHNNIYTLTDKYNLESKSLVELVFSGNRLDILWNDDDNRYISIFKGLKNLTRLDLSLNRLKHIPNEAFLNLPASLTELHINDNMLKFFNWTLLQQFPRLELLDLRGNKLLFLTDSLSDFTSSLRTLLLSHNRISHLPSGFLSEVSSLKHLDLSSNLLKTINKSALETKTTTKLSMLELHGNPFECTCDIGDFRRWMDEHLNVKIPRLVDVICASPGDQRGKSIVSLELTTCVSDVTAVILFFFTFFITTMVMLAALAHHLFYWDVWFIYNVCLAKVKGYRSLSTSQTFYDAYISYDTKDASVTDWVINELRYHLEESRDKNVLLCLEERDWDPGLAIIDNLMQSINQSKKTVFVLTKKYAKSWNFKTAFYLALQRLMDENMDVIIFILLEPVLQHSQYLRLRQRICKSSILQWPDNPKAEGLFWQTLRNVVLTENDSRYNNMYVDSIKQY
human TLR9, sequence (Q9NR96 26-1032): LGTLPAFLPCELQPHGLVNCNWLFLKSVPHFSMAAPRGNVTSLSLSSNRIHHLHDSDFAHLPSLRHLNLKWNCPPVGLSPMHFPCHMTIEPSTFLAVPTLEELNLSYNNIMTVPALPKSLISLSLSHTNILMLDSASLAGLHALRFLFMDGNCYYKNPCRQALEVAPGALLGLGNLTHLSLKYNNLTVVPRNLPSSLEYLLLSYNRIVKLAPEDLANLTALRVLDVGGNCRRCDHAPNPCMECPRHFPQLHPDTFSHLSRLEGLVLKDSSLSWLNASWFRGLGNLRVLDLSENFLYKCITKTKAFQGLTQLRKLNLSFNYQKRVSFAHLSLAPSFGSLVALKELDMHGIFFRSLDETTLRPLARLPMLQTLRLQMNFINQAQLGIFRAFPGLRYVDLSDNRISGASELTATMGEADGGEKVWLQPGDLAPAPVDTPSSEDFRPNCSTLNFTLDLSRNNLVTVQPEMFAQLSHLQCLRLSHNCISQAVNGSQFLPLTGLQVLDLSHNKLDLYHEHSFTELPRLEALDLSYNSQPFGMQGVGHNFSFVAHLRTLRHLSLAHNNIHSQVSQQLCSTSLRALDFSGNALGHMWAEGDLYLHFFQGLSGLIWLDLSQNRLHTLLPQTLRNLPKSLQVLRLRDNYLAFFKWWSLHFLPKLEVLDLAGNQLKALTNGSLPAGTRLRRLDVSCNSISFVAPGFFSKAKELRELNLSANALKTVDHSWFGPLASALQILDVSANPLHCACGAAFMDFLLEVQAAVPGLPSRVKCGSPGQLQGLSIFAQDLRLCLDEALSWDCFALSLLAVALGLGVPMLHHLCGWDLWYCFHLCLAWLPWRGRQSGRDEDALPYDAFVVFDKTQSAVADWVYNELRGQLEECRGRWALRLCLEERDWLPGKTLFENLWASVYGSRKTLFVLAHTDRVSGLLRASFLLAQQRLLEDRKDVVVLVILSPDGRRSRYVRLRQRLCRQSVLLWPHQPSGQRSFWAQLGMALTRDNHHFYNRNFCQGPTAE
human TLR7, sequence (Q9NYK1 27-1049): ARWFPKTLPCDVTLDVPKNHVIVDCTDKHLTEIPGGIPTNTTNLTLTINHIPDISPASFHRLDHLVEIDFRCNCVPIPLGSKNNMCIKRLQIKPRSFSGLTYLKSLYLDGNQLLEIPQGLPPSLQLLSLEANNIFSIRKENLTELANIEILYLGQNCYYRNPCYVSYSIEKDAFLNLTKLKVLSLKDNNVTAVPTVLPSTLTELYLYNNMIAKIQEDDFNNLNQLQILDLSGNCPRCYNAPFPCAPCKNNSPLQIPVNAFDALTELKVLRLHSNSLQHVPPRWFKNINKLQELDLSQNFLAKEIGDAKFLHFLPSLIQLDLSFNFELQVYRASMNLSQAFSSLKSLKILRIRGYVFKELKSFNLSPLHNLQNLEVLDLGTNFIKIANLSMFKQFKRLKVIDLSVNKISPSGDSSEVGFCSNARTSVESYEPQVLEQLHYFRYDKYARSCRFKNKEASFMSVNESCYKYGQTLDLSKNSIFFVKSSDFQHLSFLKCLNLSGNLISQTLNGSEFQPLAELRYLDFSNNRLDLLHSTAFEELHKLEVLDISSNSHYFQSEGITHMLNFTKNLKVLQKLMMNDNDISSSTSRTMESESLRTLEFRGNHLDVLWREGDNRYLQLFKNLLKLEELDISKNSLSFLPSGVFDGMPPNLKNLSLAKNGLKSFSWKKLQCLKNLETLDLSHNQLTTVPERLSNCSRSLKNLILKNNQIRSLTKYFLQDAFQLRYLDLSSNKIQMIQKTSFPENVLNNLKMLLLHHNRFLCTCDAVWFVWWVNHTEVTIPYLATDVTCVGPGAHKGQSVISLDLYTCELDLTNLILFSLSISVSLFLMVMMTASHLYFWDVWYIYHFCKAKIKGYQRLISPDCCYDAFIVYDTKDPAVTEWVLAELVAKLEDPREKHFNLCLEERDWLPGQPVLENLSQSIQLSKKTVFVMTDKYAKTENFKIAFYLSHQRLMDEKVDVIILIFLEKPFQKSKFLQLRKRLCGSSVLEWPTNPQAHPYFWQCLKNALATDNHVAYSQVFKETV

Structure (SMILES)	IC50 (human TLR7; [1]) [nM]	IC50 (human TLR8; [2]) [nM]	IC50 (human TLR9; [3]) [nM]	IC50 (human TLR7; [4]) [nM]	IC50 (human TLR7; [7]) [nM]	IC50 (human TLR8; [8]) [nM]	IC50 (human TLR9; [9]) [nM]	also measured
Cc1c(-c2[nH]c3ccc(N4CCN(C(=O)CN5CCOCC5)CC4)nc3c2C(C)C)cn2ncnc2c1C [Example 143]	7.8	4.5	> 50000					
Cc1c(-c2[nH]c3ccc(C4CCC(N(C)C5CC5)CC4)nc3c2C(C)C)cn2ncnc2c1C (stereo not drawn) [Example 380]	1.4	1.6	1880					
COc1cc(-c2[nH]c3ccc(C4CCC(N5CCOCC5)CC4)nc3c2C(C)C)cn2ncnc12 (stereo not drawn) [Example 1071]				3.7				IC50 (human TLR8; [5]): 25 nM; IC50 (human TLR9; [6]): 5950 nM
Cc1c(-c2[nH]c3ccc(N4C[C@@H](C)N(C(=O)CCN(C)C)C[C@@H]4C)nc3c2C(C)C)cn2ncnc2c1C [Example 843]				0.52				IC50 (human TLR8; [5]): 1.4 nM; IC50 (human TLR9; [6]): 5480 nM
Cc1c(-c2[nH]c3ccc(N4C[C@@H](C)N(C(=O)CCN(C)C)[C@H](C)C4)nc3c2C(C)C)cn2ncnc2c1C [Example 886]				2.8				IC50 (human TLR8; [5]): 1.7 nM; IC50 (human TLR9; [6]): 2570 nM
Cc1c(-c2[nH]c3ccc(C4CC5(C4)CN(C(=O)CCN(C)C)C5)nc3c2C(C)C)cn2ncnc2c1C [Example 746, 1-(6-(2-(7,8-dimethyl-[1,2,4]triazolo[1,5-a]pyridin-6-yl)-3-isopropyl-1H-pyrrolo[3,2-b]pyridin-5-yl)-2-azaspiro[3.3]heptan-2-yl)-3-(dimethylamino)propan-1-one]					1.1	10	3110	
Cc1c(-c2[nH]c3ccc(C4CCC(N5CCC(F)C5)CC4)nc3c2C(C)C)cn2ncnc2c1C (stereo not drawn) [Example 1062]				13				IC50 (human TLR8; [5]): 25 nM; IC50 (human TLR9; [6]): 10200 nM
Cc1c(-c2[nH]c3ccc(C4CCC(N5CC6(CCO6)C5)CC4)nc3c2C(C)C)cn2ncnc2c1C (stereo not drawn) [Example 1057]				0.81				IC50 (human TLR8; [5]): 1.7 nM; IC50 (human TLR9; [6]): 2700 nM
Cc1c(-c2[nH]c3ccc(N4C[C@@H](C)N(C(=O)CN(C)C)C[C@@H]4C)nc3c2C(C)C)cn2ncnc2c1C [Example 842]				0.38				IC50 (human TLR8; [5]): 0.47 nM; IC50 (human TLR9; [6]): 6920 nM
COc1cc(-c2[nH]c3ccc(OCC4CCN(CC(C)(C)O)CC4)nc3c2C(C)C)cn2ncnc12 [Example 597, 1-(4-(((3-isopropyl-2-(8-methoxy-[1,2,4]triazolo[1,5-a]pyridin-6-yl)-1H-pyrrolo[3,2-b]pyridin-5-yl)oxy)methyl)piperidin-1-yl)-2-methylpropan-2-ol]					1.3	1.2	918	
Cc1c(-c2[nH]c3ccc(C4CCN(CC#N)CC4)nc3c2C(C)C)cn2ncnc2c1C [Example 557]					0.66	1.2	440	
Cc1cnc(CNC2CCC(c3ccc4[nH]c(-c5cn(C)c6ncccc56)c(C(C)C)c4n3)CC2)cn1 (stereo not drawn) [Example 207]	1.9	4.4	253					
Cc1c(-c2[nH]c3ccc(C4CCC(NC(C)(C)C(=O)N5CCOCC5)CC4)nc3c2C(C)C)cn2ncnc2c1C (stereo not drawn) [Example 496]					7.5	2.1	2620	
COc1ccc(-c2[nH]c3ccc(C4CCN(C5CCN(CC(C)C)CC5)CC4)nc3c2C)cc1OC [Example 5, 2-(3,4-dimethoxyphenyl)-5-(1′-isobutyl-[1,4′-bipiperidin]-4-yl)-3-methyl-1H-pyrrolo[3,2-b]pyridine]	471	4060	37					
Cc1c(-c2[nH]c3ccc(N4CCN(CC(C)(C)O)C[C@@H]4C)nc3c2C(C)C)cn2ncnc2c1C [Example 802]				3				IC50 (human TLR8; [5]): 0.65 nM; IC50 (human TLR9; [6]): 17900 nM
Cc1c(-c2[nH]c3ccc(C4CC5(C4)CN(CCS(C)(=O)=O)C5)nc3c2C(C)C)cn2ncnc2c1C [Example 1026]				4.5				IC50 (human TLR8; [5]): 6.3 nM; IC50 (human TLR9; [6]): 14500 nM
Cc1c(-c2[nH]c3ccc(C4CCC(NCC5(C)COC5)CC4)nc3c2C(C)C)cn2ncnc2c1C (stereo not drawn) [Example 477]					8.3	6	6160	
COCCN(C)C1CCC(c2ccc3[nH]c(-c4cn5ncnc5c(C)c4C)c(C(C)C)c3n2)CC1 (stereo not drawn) [Example 391]	2.6	14	2450					
CNC(=O)CNC1CCC(c2ccc3[nH]c(-c4cc(OC)c5ncnn5c4)c(C(C)C)c3n2)C1 (stereo not drawn) [Example 10, 2-((3-(3-isopropyl-2-(8-methoxy-[1,2,4]triazolo[1,5-a]pyridin-6-yl)-1H-pyrrolo[3,2-b]pyridin-5-yl)cyclopentyl)amino)-N-methylacetamide]	0.42	5.3	1050					
[2H]C1([2H])N(C(=O)CN(C)C)C([2H])([2H])C([2H])([2H])N(c2ccc3[nH]c(-c4cn5ncnc5c(C)c4C)c(C(C)C)c3n2)C1([2H])[2H] (single isomer, unassigned) [Example 858]				1.1				IC50 (human TLR8; TLR8 IC50, HEK-Blue human TLR8 cells, R848 15.9 μM): 1.3 nM; IC50 (human TLR9; TLR9 IC50, HEK-Blue human TLR9 cells, ODN2006 5 nM): 7130 nM
C#CCNC1CCC(c2ccc3[nH]c(-c4cn5ncnc5c(C)c4C)c(C(C)C)c3n2)CC1 (stereo not drawn) [Example 371]	6	14	4360					
Cc1c(-c2[nH]c3ccc(N4C[C@H]5C[C@@H](C4)N5CCC(N)=O)nc3c2C(C)C)cn2ncnc2c1C [Example 756]					3.9	6	9060	

Structure (SMILES)	IC50 (human TLR7; [1]) [nM]	IC50 (human TLR8; [2]) [nM]	IC50 (human TLR9; [3]) [nM]	IC50 (human TLR7; [4]) [nM]	IC50 (human TLR7; [7]) [nM]	IC50 (human TLR8; [8]) [nM]	IC50 (human TLR9; [9]) [nM]	also measured
COc1cc(-c2[nH]c3ccc(C4CCC(N(C)CC(N)=O)CC4)nc3c2C(C)C)cn2ncnc12 (stereo not drawn) [Example 212]	3.4	6.8	1190					
COc1cc(-c2[nH]c3ccc(C4CCC(N(C)CCO)CC4)nc3c2C(C)C)cn2ncnc12 (stereo not drawn) [Example 191]	0.9	2.7	202					
Cc1cc2[nH]c(-c3cn4ncnc4c(C)c3C)c(C(C)C)c2nc1C1CCC(NC2COC2)CC1 (stereo not drawn) [Example 503]					1.4	9.2	2500	
Cc1c(-c2[nH]c3ccc(N4CC(N(C)CC(=O)N(C)C)C4)nc3c2C(C)C)cn2ncnc2c1C [Example 21]	91	46	> 50000					
Cc1c(-c2[nH]c3ccc(N4[C@@H](C)CN(CCC(N)=O)C[C@@H]4C)nc3c2C(C)C)cn2ncnc2c1C [Example 753]					[…]	12	27900	
Cc1c(-c2[nH]c3ccc(C4CC5(C4)CN(CCCS(C)(=O)=O)C5)nc3c2C(C)C)cn2ncnc2c1C [Example 1030]				3.1				IC50 (human TLR8; [5]): 1.9 nM; IC50 (human TLR9; [6]): 6280 nM
Cc1c(-c2[nH]c3ccc(N4CCN(CCC#N)CC4)nc3c2C(C)C)cn2ncnc2c1C [Example 148]	97	16	> 50000					
Cc1c(-c2[nH]c3ccc(N4CCN(C(=O)CN5CCC(CO)CC5)CC4)nc3c2C(C)C)cn2ncnc2c1C [Example 971]				3				IC50 (human TLR8; [5]): 0.85 nM; IC50 (human TLR9; [6]): 9250 nM
Cc1c(-c2[nH]c3ccc(C4CCC(NCCC(F)(F)F)CC4)nc3c2C(C)C)cn2ncnc2c1C (stereo not drawn) [Example 373]	8.6	8.3	1960					
CC(C)c1c(-c2cn(CCS(C)(=O)=O)c3ncccc23)[nH]c2ccc(C3CCC(N4CC5(COC5)C4)CC3)nc12 (stereo not drawn) [Example 258]	13	3.5	100					
CC(C)c1c(-c2cn(C)c3ncccc23)[nH]c2ccc(C3CCC(NC4CCOCC4)CC3)nc12 (stereo not drawn) [Example 265]	0.59	0.91	392					
COc1cc(-c2[nH]c3cc(F)c(C4CCNCC4)nc3c2C(C)C)cn2ncnc12 [Example 524]					0.88	6.7	407	
CNC(=O)CN(C)C1CCC(c2ccc3[nH]c(-c4cn5ncnc5c(C)c4C)c(C(C)C)c3n2)CC1 (stereo not drawn) [Example 400]					0.74	2.9	1550	
CNC1CCC(c2ccc3[nH]c(-c4cn(C)c5ncccc45)c(C(C)C)c3n2)CC1 (stereo not drawn) [Example 302]	0.74	4.9	739					
Cc1c(-c2[nH]c3ccc(N4C[C@@H](C)N(C(=O)CCN5CC6(COC6)C5)C[C@@H]4C)nc3c2C(C)C)cn2ncnc2c1C [Example 908]				0.89				IC50 (human TLR8; [5]): 0.26 nM; IC50 (human TLR9; [6]): 6460 nM
COc1cc(-c2[nH]c3ccc(C4CCN(CC(C)(C)O)CC4)nc3c2C(C)C)cn2ncnc12 [Example 548]					0.71	0.98	1090	
Cc1c(-c2[nH]c3ccc(N4CCN(C(=O)CN(C(C)C)C(C)C)C[C@@H]4C)nc3c2C(C)C)cn2ncnc2c1C [Example 903]				3				IC50 (human TLR8; [5]): 4.1 nM; IC50 (human TLR9; [6]): 35200 nM
Cc1c(-c2[nH]c3ccc(N4CCN(C(C)C)CC4)nc3c2C(C)C)cn2ncnc2c1C [Example 100]	3.2	0.55	6150					
Cc1c(-c2[nH]c3ccc(C4CCC(NCCS(N)(=O)=O)CC4)nc3c2C(C)C)cn2ncnc2c1C (stereo not drawn) [Example 447]					1.7	2.3	1640	
Cc1c(-c2[nH]c3ccc(C4CCC(N5CCCC5)CC4)nc3c2C(C)C)cn2ncnc2c1C (stereo not drawn) [Example 360]	1.3	3.4	1410					
Cc1c(-c2[nH]c3ccc(C4CCC(N(CC#N)CC5(S(C)(=O)=O)CC5)CC4)nc3c2C(C)C)cn2ncnc2c1C (stereo not drawn) [Example 478]					13	15	24500	
